Patent US10604509B2, “Nrf2 regulators” (GlaxoSmithKline Intellectual Property Development Limited, priority 2015, dated 2020)
Where a name gives a salt, the structure may show the parent alone.

The molecules below were run on NQO1 specific enzyme activity in BEAS-2B cells (assay: BEAS-2B NQO1 MTT assay). Details: Homo sapiens, BEAS-2B, 48 h, BEAS-2B cells, 48 hours with compound, MTT readout; read-out: EC50 of NQO1 specific activity induction.
Format: cell-based
How it was run: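 NQO1 specific activity, an NRF2 activation marker, read kinetically as absorbance change at 570 nm for 30 min after MTT cocktail addition to crude lysates of BEAS-2B cells exposed 48 h to compound. Three-parameter fit of Delta OD/min against log concentration gives EC50; lysate portion used for Cell Titer Glo.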

Row | SMILES | EC50
1 | CC[C@@H]1CN(Cc2cc(C(CC(=O)O)c3cnc4c(nnn4C)c3C)ccc2C)Cc2ccccc2O1 (stereo partly drawn) [Example 47, 3-(3,7-Dimethyl-3H-[1,2,3]triazolo[4,5-b]pyridin-6-yl)-3-(3-(((R)-2-ethyl-2,3-dihydrobenzo[f][1,4]oxazepin-4(5H)-yl)methyl)-4-methylphenyl)propanoic Acid, Trifluoroacetic Acid Salt] | 100 to 1000 nM
2 | Cc1ccc([C@H](CC(=O)O)c2ccc3c(nnn3C)c2C)cc1CN1Cc2ccncc2OC(C)(C)C1 [Example 264, (S)-3-(1,4-dimethyl-1H-benzo[d][1,2,3]triazol-5-yl)-3-(3-((2,2-dimethyl-2,3-dihydropyrido[4,3-f][1,4]oxazepin-4(5H)-yl)methyl)-4-methylphenyl)propanoic acid] | 1000 to 10000 nM
3 | Cc1ccc(C(c2ccc3c(nnn3C)c2C)C(C)(C)C(=O)O)cc1CN1CCCn2cncc2C1 (centres unmarked) [Example 37, 3-(3-((6,7-Dihydro-5H-imidazo[1,5-a][1,4]diazepin-8(9H)-yl)methyl)-4-methylphenyl)-3-(1,4-dimethyl-1H-benzo[d][1,2,3]triazol-5-yl)-2,2-dimethylpropanoate, Sodium salt] | 1000 to 10000 nM
4 | CCC1CN(Cc2cc(C(CC(=O)O)c3ccc4c(nnn4C)c3C)ccc2C)Cc2c(Cl)cccc2O1 (centres unmarked) [Example 88, 3-(3-((6-Chloro-2-ethyl-2,3-dihydrobenzo[f][1,4]oxazepin-4(5H)-yl)methyl)-4-methylphenyl)-3-(1,4-dimethyl-1H-benzo[d][1,2,3]triazol-5-yl)propanoic acid] | 100 to 1000 nM
5 | CCn1nnc2c(C)c(C(CC(=O)O)c3ccc(C)c(CN4Cc5ccccc5O[C@@H](C)C4)c3)ccc21 (stereo partly drawn) [Example 97, 3-(1-Ethyl-4-methyl-1H-benzo[d][1,2,3]triazol-5-yl)-3-(4-methyl-3-(((S)-2-methyl-2,3-dihydrobenzo[f][1,4]oxazepin-4(5H)-yl)methyl)phenyl)propanoic Acid, Formic Acid Salt] | 100 to 1000 nM
6 | Cc1ccc([C@@H](c2ccc3c(nnn3C)c2C)C(C)(C)C(=O)O)cc1CN1CCC[C@H](n2cccn2)C1 [Example 183, (S)-3-(3-(((S)-3-(1H-Pyrazol-1-yl)piperidin-1-yl)methyl)-4-methylphenyl)-3-(1,4-dimethyl-1H-benzo[d][1,2,3]triazol-5-yl)-2,2-dimethylpropanoic Acid] | 10 to 100 nM
7 | Cc1ccc(C(c2ccc3c(nnn3C)c2C)C(C)(C)C(=O)O)cc1Cn1ccnc1CN1CCCCC1 (centres unmarked) [Example 123, 3-(1,4-Dimethyl-1H-benzo[d][1,2,3]triazol-5-yl)-2,2-dimethyl-3-(4-methyl-3-((2-(piperidin-1-ylmethyl)-1H-imidazol-1-yl)methyl)phenyl)propanoate, Sodium salt] | 10 to 100 nM
8 | CCn1cc(CCC(c2ccc(C)c(CN3Cc4cccnc4OC(C)(C)C3)c2)C(C)(C)C(=O)O)nn1 (centres unmarked) [Example 223, 3-(3-((2,2-Dimethyl-2,3-dihydropyrido[3,2-f][1,4]oxazepin-4(5H)-yl)methyl)-4-methylphenyl)-5-(1-ethyl-1H-1,2,3-triazol-4-yl)-2,2-dimethylpentanoic Acid] | 1 to 10 nM
9 | Cc1ccc(C(CC(=O)O)c2ccc3c(nnn3C)c2C)cc1Cn1ccnc1CN1CCCCC1 (centres unmarked) [Example 154, 3-(1,4-dimethyl-1H-benzo[d][1,2,3]triazol-5-yl)-3-(4-methyl-3-((2-(piperidin-1-ylmethyl)-1H-imidazol-1-yl)methyl)phenyl)propanoic Acid, Trifluoroacetic Acid Salt] | 100 to 1000 nM
10 | CCC1CCN(Cc2nccn2Cc2cc([C@H](c3ccc4c(nnn4C)c3C)C(C)(C)C(=O)O)ccc2Cl)CC1 [Example 238, (R)-3-(4-Chloro-3-((2-((4-ethylpiperidin-1-yl)methyl)-1H-imidazol-1-yl)methyl)phenyl)-3-(1,4-dimethyl-1H-benzo[d][1,2,3]triazol-5-yl)-2,2-dimethylpropanoic Acid] | 1 to 10 nM
11 | Cc1ccc(C(CC(=O)O)c2ccc3c(nnn3C)c2C)cc1Cn1ccnc1CC1CCCCC1 (centres unmarked) [Example 127, 3-(3-((2-(Cyclohexylmethyl)-1H-imidazol-1-yl)methyl)-4-methylphenyl)-3-(1,4-dimethyl1H-benzo[d][1,2,3]triazol-5-yl)propanoic Acid] | 10 to 100 nM
12 | CC[C@@H]1CN(Cc2cc([C@@H](c3ccc4c(nnn4CC)c3C)C(C)(C)C(=O)O)ccc2C)Cc2cnccc2O1 [Example 188, (S)-3-(3-(((R)-2-Ethyl-2,3-dihydropyrido[3,4-f][1,4]oxazepin-4(5H)-yl)methyl)-4-methylphenyl)-3-(1-ethyl-4-methyl-1H-benzo[d][1,2,3]triazol-5-yl)-2,2-dimethylpropanoic Acid] | < 1 nM
13 | Cc1ccc([C@H](CC(=O)O)c2ccc3c(nnn3C)c2C)cc1CN1Cc2cccc(F)c2OC(C)(C)C1 [Example 178, (S)-3-(1,4-Dimethyl-1H-benzo[d][1,2,3]triazol-5-yl)-3-(3-((9-fluoro-2,2-dimethyl-2,3-dihydrobenzo[f][1,4]oxazepin-4(5H)-yl)methyl)-4-methylphenyl)propanoic acid] | 10 to 100 nM
14 | Cc1ccc([C@@H](CC(=O)O)c2ccc3c(nnn3C)c2C)cc1CN1Cc2ccccc2OC(C)(C)C1 [Example 110, (R)-3-(1,4-dimethyl-1H-benzo[d][1,2,3]triazol-5-yl)-3-(3-((2,2-dimethyl-2,3-dihydrobenzo[f][1,4]oxazepin-4(5H)-yl)methyl)-4-methylphenyl)propanoic Acid, Formic Acid Salt] | < 1 nM
15 | CC[C@@H]1CN(Cc2cc([C@@H](CC(=O)O)c3ccc4c(nnn4C)c3C)ccc2C)Cc2cccc(F)c2O1 [Example 60, (R)-3-(1,4-Dimethyl-1H-benzo[d][1,2,3]triazol-5-yl)-3-(3-(((R)-2-ethyl-9-fluoro-2,3-dihydrobenzo[f][1,4]oxazepin-4(5H)-yl)methyl)-4-methylphenyl)propanoic acid, Sodium salt] | 10 to 100 nM
16 | Cc1ccc(C(CC(=O)O)c2ccc3c(nnn3C)c2C)cc1CN1Cc2ccccc2O[C@H](C)C1 (stereo partly drawn) [Example 94, 3-(1,4-Dimethyl-1H-benzo[d][1,2,3]triazol-5-yl)-3-(4-methyl-3-(((R)-2-methyl-2,3-dihydrobenzo[f][1,4]oxazepin-4(5H)-yl)methyl)phenyl)propanoic Acid, Formic Acid Salt] | 1 to 10 nM
17 | Cc1c(C(CC(=O)O)c2ccc(F)c(CN3Cc4ccccc4O[C@@H](C)C3)c2)ccc2c1nnn2C (stereo partly drawn) [Example 95, 3-(1,4-Dimethyl-1H-benzo[d][1,2,3]triazol-5-yl)-3-(4-fluoro-3-(((S)-2-methyl-2,3-dihydrobenzo[f][1,4]oxazepin-4(5H)-yl)methyl)phenyl)propanoic Acid, Formic Acid Salt] | 100 to 1000 nM
18 | Cc1ccc(C(CC(=O)O)c2ccc3c(nnn3C)c2C)cc1Cn1cnc(CC2CCCCC2)c1 (centres unmarked) [Example 136, 3-(3-((4-(Cyclohexylmethyl)-1H-imidazol-1-yl)methyl)-4-methylphenyl)-3-(1,4-dimethyl-1H-benzo[d][1,2,3]triazol-5-yl)propanoic Acid] | 10 to 100 nM
19 | CCn1nnc2c(C)c([C@@H](c3ccc(C)c(Cn4ccnc4CN4CCCCC4)c3)[C@H](C)C(=O)O)ccc21 [Example 201, (2S,3R)-3-(1-Ethyl-4-methyl-1H-benzo[d][1,2,3]triazol-5-yl)-2-methyl-3-(4-methyl-3-((2-(piperidin-1-ylmethyl)-1H-imidazol-1-yl)methyl)phenyl)propanoic Acid] | 100 to 1000 nM
20 | CCn1nnc2c(Cl)c([C@H](c3ccc(C)c(CN4Cc5cccnc5OC(C)(C)C4)c3)[C@@H](C)C(=O)O)ccc21 [Example 194, (2R,3S)-3-(4-Chloro-1-ethyl-1H-benzo[d][1,2,3]triazol-5-yl)-3-(3-((2,2-dimethyl-2,3-dihydropyrido[3,2-f][1,4]oxazepin-4(5H)-yl)methyl)-4-methylphenyl)-2-methylpropanoic acid] | 10 to 100 nM
21 | Cc1c(C(CC(=O)O)c2ccc(F)c(CN3Cc4ncccc4OC(C)(C)C3)c2)ccc2c1nnn2C (single isomer, unassigned; isomer 1) [Example 261] | 100 to 1000 nM
22 | CC[C@@H]1CN(Cc2cc(C(CCc3cn(CC)nn3)C(C)(C)C(=O)O)ccc2C)Cc2cccnc2O1 (stereo partly drawn) [Example 217, 5-(1-Ethyl-1H-1,2,3-triazol-4-yl)-3-(3-(((R)-2-ethyl-2,3-dihydropyrido[3,2-f][1,4]oxazepin-4(5H)-yl)methyl)-4-methylphenyl)-2,2-dimethylpentanoic Acid] | 10 to 100 nM
23 | CCn1cc(CCC(c2ccc(C)c(CN3Cc4cnccc4OC(C)(C)C3)c2)C(C)C(=O)O)nn1 (single isomer, unassigned) [Example 227, 3-(3-((2,2-Dimethyl-2,3-dihydropyrido[3,4-f][1,4]oxazepin-4(5H)-yl)methyl)-4-methylphenyl)-5-(1-ethyl-1H-1,2,3-triazol-4-yl)-2-methylpentanoic acid, Trifluoroacetic acid salt] | 100 to 1000 nM
24 | Cc1ccc(C(c2ccc3c(nnn3C)c2C)C(C)(C)C(=O)O)cc1Cn1ccnc1CN1C2CCCC1CC2 (centres unmarked) [Example 156, 3-(3-((2-(8-Azabicyclo[3.2.1]octan-8-ylmethyl)-1H-imidazol-1-yl)methyl)-4-methylphenyl)-3-(1,4-dimethyl-1H-benzo[d][1,2,3]triazol-5-yl)-2,2-dimethylpropanoic Acid, Trifluoroacetic Acid Salt] | 10 to 100 nM
25 | Cc1ccc(C(c2ccc3c(nnn3C)c2C)C(C)(C)C(=O)O)cc1Cn1ccnc1CN1CCO[C@H](C)C1 (stereo partly drawn) [Example 144, 3-(1,4-Dimethyl-1H-benzo[d][1,2,3]triazol-5-yl)-2,2-dlmethyl-3-(4-methyl-3-((2-(((R)-2-methylmorpholino)methyl)-1H-imidazol-1-yl)methyl)phenyl) propanoic acid, trifluoroacetic acid salt] | 100 to 1000 nM
26 | Cc1ccc(C(CC(=O)O)c2ccc3c(nnn3C)c2C)cc1CN1CCCC(S(=O)(=O)c2ccccc2)C1 (centres unmarked) [Example 185, 3-(1,4-Dimethyl-1H-benzo[d][1,2,3]triazol-5-yl)-3-(4-methyl-3-((3-(phenylsulfonyl)piperidin-1-yl)methyl)phenyl)propanoic Acid] | 10 to 100 nM
